Eight molecules from patent US20240166609A1, “ANTIBACTERIAL COMPOUNDS” (BLACKSMITH MEDICINES, INC., priority 2021, published 2024) can be followed below.

Common to all, as to assay: Bacterial susceptibility testing, MIC by broth microdilution (CLSI)
Assay type in all cases: cell-based
Background: Broth dilution looks for growth in wells or tubes with falling amounts of substance.

One assay concerns E. coli ATCC25922. As to conditions: Escherichia coli, 35° C., 18-24 h, read-out: MIC (μg/mL) E. coli ATCC25922. The procedure:
(§1) Minimal inhibitory concentrations (MIC) were determined by the broth microdilution method in accordance with the Clinical and Laboratory Standards Institute (CLSI) guidelines. In brief, organism suspensions were adjusted to a final inoculum between 3×10^5 and 7×10^5 colony-forming units (CFU)/mL. Drug dilutions and inocula were made in sterile, cation adjusted Mueller-Hinton Broth (Beckton Dickinson). In wells, an inoculum volume of 100 μL was mixed to 2 μL of DMSO with 2-fold serial dilutions of drug. All inoculated microdilution trays were incubated in ambient air at 35° C. for 18-24 h. Following incubation, the lowest concentration of the drug that prevented visible growth (OD600 nm<0.05) was recorded as the MIC. Performance of the assay was monitored by the use of laboratory quality-control strains and compounds with defined MIC spectrum, in accordance with CLSI guidelines

In a further assay the test system is K. pneumoniae ATCC13883. The settings on record: Klebsiella pneumoniae, 35° C., 18-24 h, read-out: MIC (μg/mL) K. pneumoniae ATCC13883. Here is the method:
as §1

In a further assay the test system is P. aeruginosa 209 PAO1. As to conditions: Pseudomonas aeruginosa, 35° C., 18-24 h, read-out: MIC (μg/mL) P. aeruginosa 209 PAO1. The procedure:
as §1

The next assay relates to P. aeruginosa ATCC27835. The settings on record: Pseudomonas aeruginosa, 35° C., 18-24 h, read-out: MIC (μg/mL) P. aeruginosa ATCC27835. The procedure:
as §1

≈ marks a conversion by molar mass, not a printed value.

As for `C[C@@H](O)c1nccn1[C@H](C#Cc1ccc(-c2ccc(OCC(N)CO)cc2)cc1)CO` (mixture of isomers) [Compound 1, (2R)-4-(4′-(2-amino-3-hydroxypropoxy)-[1,1′-biphenyl]-4-yl)-2-(2-((R)-1-hydroxyethyl)-1H-imidazol-1-yl)but-3-yn-1-ol], the MIC in the assay on E. coli ATCC25922 came out at 8 µg/mL (≈ 19 µM); with K. pneumoniae ATCC13883, 32 µg/mL (≈ 75.9 µM); in the assay on P. aeruginosa 209 PAO1, 1 µg/mL (≈ 2.37 µM); in the assay on P. aeruginosa ATCC27835, 1 µg/mL (≈ 2.37 µM).
On to `C[C@H](O)c1nccn1[C@@H](C#Cc1ccc(-c2ccc(O[C@@H]3C[C@H]3N)cc2)cc1)CO` (racemic) [Compound 4, (S)-4-(4′-((trans)-2-aminocyclopropoxy)-[1,1′-biphenyl]-4-yl)-2-(2-((S)-1-hydroxyethyl)-1H-imidazol-1-yl)but-3-yn-1-ol], for which the MIC with E. coli ATCC25922 came out at 0.25 µg/mL (≈ 0.62 µM); with K. pneumoniae ATCC13883, 0.5 µg/mL (≈ 1.24 µM); in the assay on P. aeruginosa 209 PAO1, 2 µg/mL (≈ 4.96 µM); with P. aeruginosa ATCC27835, 2 µg/mL (≈ 4.96 µM).
Take `C[C@H](O)c1nccn1[C@@H](C#Cc1ccc(-c2ccc(C(O)CO)cc2)cc1)CO` (mixture of isomers) [Compound 5, 1-(4′-((S)-4-hydroxy-3-(2-((S)-1-hydroxyethyl)-1H-imidazol-1-yl)but-1-yn-1-yl)-[1,1′-biphenyl]-4-yl)ethane-1,2-diol]: the MIC in the assay on E. coli ATCC25922 was 8 µg/mL (≈ 20.4 µM); in the assay on K. pneumoniae ATCC13883 it was 16 µg/mL (≈ 40.8 µM); in the assay on P. aeruginosa 209 PAO1 it was 4 µg/mL (≈ 10.2 µM); in the assay on P. aeruginosa ATCC27835 it was 4 µg/mL (≈ 10.2 µM).
In the case of `C[C@H](O)c1nccn1[C@@H](C#Cc1ccc(-c2ccc(COCC(N)CO)cc2)cc1)CO` (mixture of isomers) [Compound 6, (2S)-4-(4′-((2-amino-3-hydroxypropoxy)methyl)-[1,1′-biphenyl]-4-yl)-2-(2-((S)-1-hydroxyethyl)-1H-imidazol-1-yl)but-3-yn-1-ol], the MIC with E. coli ATCC25922 worked out at 16 µg/mL (≈ 36.7 µM); in the assay on K. pneumoniae ATCC13883, 32 µg/mL (≈ 73.5 µM); with P. aeruginosa 209 PAO1, 2 µg/mL (≈ 4.59 µM); in the assay with P. aeruginosa ATCC27835, 4 µg/mL (≈ 9.18 µM).
In the same order, the values of `C[C@H](O)c1nccn1[C@@H](C#Cc1ccc(-c2ccc(O[C@H]3COC[C@@H]3O)cc2)cc1)CO` (racemic) [Compound 46, (cis)-4-((4′-((S)-4-hydroxy-3-(2-((S)-1-hydroxyethyl)-1H-imidazol-1-yl)but-1-yn-1-yl)-[1,1′-biphenyl]-4-yl)oxy)tetrahydrofuran-3-ol] are 1 µg/mL (≈ 2.3 µM), 2 µg/mL (≈ 4.6 µM), 1 µg/mL (≈ 2.3 µM) and 2 µg/mL (≈ 4.6 µM).
On the same counts, the results for `C[C@H](O)c1nccn1[C@H](C#Cc1ccc(-c2ccc(OC[C@@H](N)CO)cc2)cc1)CO` [Compound 2, (R)-4-(4′-((S)-2-amino-3-hydroxypropoxy)-[1,1′-biphenyl]-4-yl)-2-(2-((S)-1-hydroxyethyl)-1H-imidazol-1-yl)but-3-yn-1-ol] are 8 µg/mL (≈ 19 µM), 16 µg/mL (≈ 38 µM), 2 µg/mL (≈ 4.74 µM) and 2 µg/mL (≈ 4.74 µM).
On the same counts, the results for `C[C@H](O)c1nccn1[C@@H](C#Cc1ccc(-c2ccc(C3CC(NCC(F)(F)CO)C3)cc2)cc1)CO` (stereo partly drawn) [Compound 34, (S)-4-(4′-(3-((2,2-difluoro-3-hydroxypropyl)amino)cyclobutyl)-[1,1′-biphenyl]-4-yl)-2-(2-((S)-1-hydroxyethyl)-1H-imidazol-1-yl)but-3-yn-1-ol] are 0.5 µg/mL (≈ 1.01 µM), 2 µg/mL (≈ 4.04 µM), 2 µg/mL (≈ 4.04 µM) and 4 µg/mL (≈ 8.07 µM).
With `C[C@H](O)c1nccn1[C@@H](C#Cc1ccc(-c2ccc(C3CC(NCc4noc(C(N)=O)n4)C3)cc2)cc1)CO` (stereo partly drawn) [Compound 35, 3-(((3-(4′-((S)-4-hydroxy-3-(2-((S)-1-hydroxyethyl)-1H-imidazol-1-yl)but-1-yn-1-yl)-[1,1′-biphenyl]-4-yl)cyclobutyl)amino)methyl)-1,2,4-oxadiazole-5-carboxamide], the MIC in the assay with E. coli ATCC25922 stood at 0.5 µg/mL (≈ 0.949 µM); in the assay on K. pneumoniae ATCC13883, 2 µg/mL (≈ 3.8 µM); with P. aeruginosa 209 PAO1, 4 µg/mL (≈ 7.6 µM); with P. aeruginosa ATCC27835, 4 µg/mL (≈ 7.6 µM).
